{
  "source": "patent US20220241378A1",
  "about": "“COMPOSITIONS AND METHODS FOR TREATMENT OF CHRONIC GRANULOMATOUS DISEASE” (priority 2019, published 2022)",
  "test_system": "C57BL/6 and p47phox-/- mice infected intranasally with A. fumigatus conidia",
  "test": "Lung inflammation model: C57BL/6 and p47phox-/- mice infected intranasally with A. fumigatus",
  "assay_type": "in vivo",
  "details": "p47phox-/- aspergillosis mice",
  "method": "In vivo models mimicking human pathology such as lung and gut inflammation were prepared. A model of lung inflammation was tested using C57BL/6 and p47phox-/- mice. The mice were infected with A. fumigatus intranasally and treated them with Tβ4 for 7 consecutive days starting a week after the infection. LC3-II (FIG. 1F) and DAPK1 (FIG. 1G) expression were both defective in p47phox-/- mice, but restored by Tβ4 and ablated (LC3-II) upon siTβ4 (FIGS. 10A and 10B). In addition, gut inflammation was tested using the same mouse model. Acute colitis in p47phox-/- mice was initiated by administering […] in drinking water for 7 days followed by 7 days of DSS-free autoclaved water. Subsequently, Tβ4 was therapeutically administered daily for 7 days, after DSS treatment, at the time at which mice started to lose weight. Consistent with previous findings (de Luca et al., 2014), LC3-II (FIG. 1H) and DAPK1 (FIG. 1I) expression were both defective in the colon ofp47phox-/- mice with colitis as opposed to WT mice but restored upon treatment with T134 (FIGS. 1H and 1I). DAPK1 expression in colon lysates of C57BL/6 and p47^phox-/- mice subjected to DSS-induced colitis for a week and treated intraperitoneally with 5 mg/kg Tβ4 for 7 consecutive days after DSS treatment, n=6-10 mice per group. Data are presented as mean ±SD and are representative of two experiments. Mice were categorized as Naive (uninfected or untreated mice) or None (infected mice). For immunoblotting, normalization was performed on mouse β-actin or Gapdh and corresponding pixel density or ratio is depicted. For immunofluorescence, nuclei were counterstained with DAPI. Photographs were taken with a high-resolution microscope (Olympus BX51), 40× and 100× magnification. LC3 mean fluorescence intensity (MFI) was measured with the ImageJ software. In FIGS. 1F-1H, n=6-10 mice per group. Data are presented as mean ±SD and are representative of two experiments. Naïve, uninfected or untreated mice. None, infected mice.\nViable conidia from the A. fumigatus Af293 strain were obtained as described (De Luca et al., 2012). Mice were anesthetized in a plastic cage by inhalation of 3% isoflurane (Forane Abbot) in oxygen before intranasal instillation of 2×10^7 resting conidia/20 μl saline. For survival curves, p47^phox-/- mice were challenged with […] conidia/20 μl saline. Tβ4 was administered intraperitoneally (i.p.) at the dose of 5 mg/kg at an effective dose as described (Badamchian et al., Thymosin beta(4) reduces lethality and down-regulates inflammatory mediators in endotoxin-induced septic shock. Int Immunopharmacol, 2003 3(8): p. 1225-33), every day in concomitance with (days 0→7) or after (days 7→14) infection. DMOG (Merck Millipore) was administered i.p. at the dose of 8 mg/mouse concomitantly to the infection. For Hif1a silencing, each mouse received intranasal administration of 10 mg/kg unmodified siRNA [Duplex name mm.Ri.Hif1a.13.1 (IDT); 5′-[…]-3′; 3′-[…] -5′] and Tmsb4x silencing [Duplex name mm.Ri.Tmsb4x.13.1; 5′-[…]-3′; 3′-[…] -5′], or equivalent dose of nonspecific control siRNA duplex in a volume of 20 μl of duplex buffer (IDT). Intranasal siRNA was given once the day before infection and 1, 3 and 5 days after infection (Iannitti et al., 2013 Hypoxia promotes danger-mediated inflammation via receptor for advanced glycation end products in cystic fibrosis. Am J Respir Crit Care Med 188:1338-1350). It is known that lung-specific siRNA delivery can be achieved by intranasal administration without the use of viral vectors or transfection agents in vivo (Iannitti et al., 2013 Th17/Treg imbalance in murine cystic fibrosis is linked to indoleamine 2,3-dioxygenase deficiency but corrected by kynurenines. Am J Respir Crit Care Med 187:609-620). Mice were sacrificed 7 or 14 days post infection. Fungal burden was determined by qPCR and expressed as conidial equivalents (CE). Lung tissue was aseptically removed and homogenized in 3 ml of sterile saline. […]",
  "data": [
    {"molecule": "COC(=O)CNC(=O)C(=O)OC", "note": "[DMOG, dimethyloxalylglycine, reference compound]", "values": [
      {"measurement": "fungal burden", "setting": "DMOG for 5 days (FIG. 7A)", "result": "reduced"},
      {"measurement": "lung pathology", "setting": "DMOG for 5 days (FIG. 7B)", "result": "ameliorated"},
      {"measurement": "HIF-1α expression", "setting": "DMOG for 5 days (FIG. 7C)", "result": "increased"},
      {"measurement": "HIF-1α-responsive genes", "setting": "DMOG for 5 days (FIG. 7D)", "result": "up-regulated"}
    ]}
  ]
}
